Data reported in patent publication US9879243B2, “Culture medium for cell growth and transfection” (LIFE TECHNOLOGIES CORPORATION, priority 2001, dated 2018).

Experiments:
CHO cells = assay: Effect of replacement compounds on the growth of CHO cells in CD CHO medium without transferrin, three passages; type: cell-based, Chinese hamster; conditions: third passage
Experimental: (§1) The ability of replacement compounds to support cellular growth in the absence of transferrin was evaluated using CHO cells maintained in CD CHO medium (Invitrogen Corporation, Carlsbad, Calif., the formulation of which is described in WO 98/08934). Stock cultures containing 5 μg/mL human holo-transferrin were prepared in CD CHO medium. For replacement compound evaluation, CHO cells were established in 125 mL shaker flasks at an initial viable seeding density of 1×10^5 cells/mL in a final volume of 20 mL. All cultures were maintained at 37° C. in humidified air containing 8% CO2. To eliminate transferrin carry-over effects, cells were subcultured at 4 day intervals for a total of three passages. Positive control cultures contained 5 μg/mL human holo-transferrin while negative control cultures were established in the absence of either transferrin or replacement compound. Replacement compound stocks were prepared at 0.1M-0.2M in ddH2O and solubilized when necessary using 5N NaOH or HCl. Iron complexes were established using 0.2M replacement compound and iron stocks mixed 1:1 (v/v) and incubated for 5-10 minutes at 22° C. All solutions containing replacement compounds were filter sterilized using a 0.22 μm Millex-GV filter prior to addition to transferrin and serum-free media.
(§2) Except where noted, replacement compounds were evaluated either alone or in combination with ferric chloride or ferrous sulfate at 25 μM, 50 μM and 100 μM. Values in the table represent the mean percentage of control growth for duplicate cultures determined at the third passage.
The ability of various replacement compounds to substitute for transferrin in the culture of CHO cells was determined. When added to the medium formulation un-complexed, the replacement compound is listed alone, when added as a complex with a transition metal, the source of the transition metal is listed with the metal binding compound.

293 cells [1] = assay: Effect of replacement compounds on the growth of 293 cells in 293 SFM without transferrin, three passages; type: cell-based, human; conditions: third passage, control 5 μg/mL human holo-transferrin
Experimental: Semi-confluent adherent cultures of 293 Cells (ATCC, CRL 1573) are readily adapted to suspension culture. The cells are first detached with a solution of Trypsin-EDTA (0.05% Trypsin, 0.53 mM Na4EDTA), and then resuspended in conventional medium supplemented with 10% FBS to inhibit the trypsin. The resuspended cells are centrifuged at 200×g for five minutes.
The initial seeding density of the 293 cells after conversion to suspension culture is 1×10^6 cells/mL. The cells are shaken on a rotary shaker at 150 rpm in a 37° C. incubator equilibrated with 8% CO2-92% air. […] Because 293 cells have a tendency to aggregate, the cells can be vortexed vigorously for approximately 45 seconds to obtain a predominantly single cell suspension at the time of passaging and counting. After several passages in suspension culture, the maximum achievable density can be determined.
as §1, with “For” for “The ability of replacement compounds to support cellular growth in the absence of transferrin was evaluated using CHO cells maintained in CD CHO medium (Invitrogen Corporation, Carlsbad, Calif., the formulation of which is described in WO 98/08934). Stock cultures containing 5 μg/mL human holo-transferrin were prepared in CD CHO medium. For”, “evaluation, 293” for “evaluation, CHO”, “of 2×10^5” for “of 1×10^5”, “passages. At each subculturing, cells were seeded at a density of 2×10^5 cells/mL.” for “passages.”, “using 0.2 M” for “using 0.2M”
as §2, with “μM. When used in combination, the replacement compounds were used in equimolar concentration with iron ions.” for “μM.”, “Table 4” for “the table”
When added to the medium formulation uncomplexed, the replacement compound is listed alone, when added as a complex with a transition metal, the source of the transition metal is listed with the replacement compound.

293 cells [2] = assay: β-galactosidase expression after transfection (pCMV-SPORT-β-gal, LIPOFECTAMINE 2000) of 293 cells in monolayer culture, 24-well plates; type: cell-based, human; conditions: Table 8, replacement compounds 25 μM in test media, 24 hrs post-transfection
Experimental: When cultured in suspension, cells were split to 3×10^5 viable cells per ml at each passage. On the week of transfection cells were seeded at 3×10^5 viable cells per ml. After ˜48 hrs of growth (day 2) cells were vortexed for 30 seconds and counted and appropriate volumes used for transfection as described in procedures below.
In addition, the base media comprises 2.4 g/L NaHCO3, 2.98 g/L Hepes, 4 mM L-glutamine and 3 ml/L PLURONIC F-68 (Invitrogen Corp., Carlsbad, Calif.).
The osmolarity is adjusted to from about 275-310 mOsm, preferably about 280 mOsm and the pH is adjusted to from about 7.0 to about 7.45 preferably about 7.4 respectively.
Three wells were set up for each treatment. A volume of media corresponding to 3×10^6 viable cells was centrifuged. The supernatant was removed and the cells re-suspended in 600 μl test media. Each well of a 24 well plate received 200 μl of the re-suspended cells.
To prepare the nucleic acid for the transfection experiments, 93 μl test media+3 μl DNA+24 μl LIPOFECTAMINE 2000 were combined in a microfuge tube and complexed for 30 minutes. A 40 μl aliquot of complex was added to each well. 250 μl test media was added to each well five hours after addition of complex. The final cell concentration was 1×10^6 viable cells per well; the final DNA concentration was 1 μg per 1×10^6 viable cells and the final LIPOFECTAMINE 2000 concentration was 8 μl per 1×10^6 viable cells.
24 hrs post-transfection, samples were collected for β-galactosidase quantitation. The contents of duplicate wells were pooled (i.e. ˜2×10^6 cells for the assay) for each sample and transferred to a microfuge tube. The cells were centrifuged, the supernatant was removed and the cells were re-suspended in 1 ml of D-PBS. The cells were pelleted a second time and re-suspended in 1 ml of D-PBS. The samples were then stored at −70° C. Prior to the assay for β-galactosidase, samples were freeze-thawed a total of five times.
293 cells were grown in monolayer culture in the presence of the various replacement compounds indicated and transfection experiments performed as described above. The results are shown in Table 8 and the values are β-galactosidase activity expressed as nanograms of β-galactosidase per 2×10^6 cells. A comparison was made between the transfection efficiency of DNA complexes formed in D-MEM medium and DNA complexes formed in test medium. […]
For cells transfected in 24-well plates, cells densities used were 1×10^6 viable cells per well.

Sp2/0 cells = assay: Effect of replacement compounds on the growth of Sp2/0 cells in CD Hybridoma medium without transferrin, three passages; type: cell-based; conditions: third passage
Experimental: The ability of replacement compounds to support cellular growth in the absence of transferrin was evaluated using Sp2/0 cells maintained in CD Hybridoma medium (Invitrogen Corporation, Carlsbad, Calif.).
Stock cultures containing 5 μg/mL human holo-transferrin were prepared in CD Hybridoma medium. For replacement compound evaluation, Sp2/0 cells were established at an initial viable cell density of 0.5×10^5 cells/mL in stationary culture using 75 cm^2 tissue culture flasks in a final volume of 20 mL. All cultures were maintained at 37° C. in humidified air containing 8% CO2. To eliminate transferrin carry-over effects, cells were subcultured at the same seeding density at 4 day intervals for a total of three passages. Positive control cultures contained 5 μg/mL human holo-transferrin while negative control cultures were established in the absence of either transferrin or replacement compound. Replacement compound stocks were prepared at 0.1M-0.2M in ddH2O and solubilized when necessary using 5N NaOH or HCl. Iron complexes were established using 0.2M replacement compound and iron stocks mixed 1:1 (v/v) and incubated for 5-10 minutes at 22° C. All solutions containing replacement compounds were filter sterilized using a 0.22 μm Millex-GV filter prior to addition to transferrin and serum-free media.
Except where otherwise noted, replacement compounds were evaluated either alone or in combination with ferric chloride or ferrous sulfate at 25 μM, 50 μM and 100 μM. Values in the table represent the mean percentage of control growth for duplicate cultures determined at the third passage.
When added to the medium formulation un-complexed, the replacement compound is listed alone, when added as a complex with a transition metal, the source of the transition metal is listed with the replacement compound.

[3] = 25 μM, control 5 μg/mL human holo-transferrin
[4] = 25 μM, iron equimolar where combined

Molecule	mean percentage of control growth (CHO cells; [3])	mean percentage of control growth (CHO cells; 50 μM)	mean percentage of control growth (CHO cells; 100 μM)	mean percentage of control growth (293 cells [1]; [4])	mean percentage of control growth (293 cells [1]; 50 μM)	mean percentage of control growth (293 cells [1]; 100 μM)	β-galactosidase activity; D-MEM used for complexing, Test media to re-suspend cells (293 cells [2])	β-galactosidase activity; Test Media used for complexing and to re-suspend cells (293 cells [2])	mean percentage of control growth (Sp2/0 cells; [3])	mean percentage of control growth (Sp2/0 cells; 50 μM)	mean percentage of control growth (Sp2/0 cells; 100 μM)
[Cl][Fe]([Cl])[Cl].c1ccc(Nc2ccccn2)nc1 [2,2-Dipyridylamine•Ferric Chloride]	40 percentage of control growth	48 percentage of control growth	65 percentage of control growth	118 percentage of control growth	96 percentage of control growth	101 percentage of control growth	347 nanograms of β-galactosidase per 2×10^6 cells	459 nanograms of β-galactosidase per 2×10^6 cells			
Cc1occc(=O)c1O [3-Hydroxy-2-Methyl-4-Pyrone (Maltol), 3-Hydroxy-2-Methyl-4-Pyrone]				0 percentage of control growth	28 percentage of control growth	81 percentage of control growth	103 nanograms of β-galactosidase per 2×10^6 cells	52 nanograms of β-galactosidase per 2×10^6 cells	0 percentage of control growth	0 percentage of control growth	0 percentage of control growth
O=S(=O)([O-])[O-].[Fe+2].[O-][n+]1cccc(O)c1 [3-Hydroxypyridine-N-Oxide•Ferrous Sulfate]				104 percentage of control growth	58 percentage of control growth	0 percentage of control growth	176 nanograms of β-galactosidase per 2×10^6 cells	317 nanograms of β-galactosidase per 2×10^6 cells			
[Cl][Fe]([Cl])[Cl] [Ferric Chloride, reference compound]	56 percentage of control growth	85 percentage of control growth	101 percentage of control growth	87 percentage of control growth	91 percentage of control growth	109 percentage of control growth	18 nanograms of β-galactosidase per 2×10^6 cells	0 nanograms of β-galactosidase per 2×10^6 cells	55 percentage of control growth	73 percentage of control growth	74 percentage of control growth
O=S(=O)([O-])[O-].[Fe+2] [Ferrous Sulfate, reference compound]	88 percentage of control growth	79 percentage of control growth	38 percentage of control growth	71 percentage of control growth	60 percentage of control growth	41 percentage of control growth	258 nanograms of β-galactosidase per 2×10^6 cells	406 nanograms of β-galactosidase per 2×10^6 cells	91 percentage of control growth	103 percentage of control growth	94 percentage of control growth
Diethylenetriamine Penta-Acetic Acid•Ferric Chloride				79 percentage of control growth	96 percentage of control growth	102 percentage of control growth	131 nanograms of β-galactosidase per 2×10^6 cells	574 nanograms of β-galactosidase per 2×10^6 cells			
Human Transferrin (as control): human transferrin used as control replacement compound in test media							326 nanograms of β-galactosidase per 2×10^6 cells	3279 nanograms of β-galactosidase per 2×10^6 cells			
